Tests used:
Type in all cases: cell-based
[1] = molecular target: T1, A1R (adenosine A1 receptor) (Homo sapiens, UniProt P30542); experiment: cAMP accumulation assay in HEK-293 cells expressing A1R (reference agonist)
T1 construct: gene ADORA1
T1 sequence (P30542 1-326): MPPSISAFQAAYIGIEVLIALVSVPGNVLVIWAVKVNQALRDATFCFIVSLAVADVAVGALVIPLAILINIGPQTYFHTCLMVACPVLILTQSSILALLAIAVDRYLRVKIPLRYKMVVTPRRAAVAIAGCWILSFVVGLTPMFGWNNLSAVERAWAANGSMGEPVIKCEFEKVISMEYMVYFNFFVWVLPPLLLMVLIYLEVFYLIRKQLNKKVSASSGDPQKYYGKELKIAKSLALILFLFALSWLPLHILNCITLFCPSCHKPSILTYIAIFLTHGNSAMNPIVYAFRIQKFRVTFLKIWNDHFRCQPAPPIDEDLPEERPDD

[2] = molecular target: T2, adenosine A3 receptor (A3R) (Homo sapiens, UniProt P0DMS8); experiment: cAMP accumulation assay in HEK-293 cells expressing A3R (reference agonist)
T2 construct: gene ADORA3
T2 sequence (P0DMS8 1-318): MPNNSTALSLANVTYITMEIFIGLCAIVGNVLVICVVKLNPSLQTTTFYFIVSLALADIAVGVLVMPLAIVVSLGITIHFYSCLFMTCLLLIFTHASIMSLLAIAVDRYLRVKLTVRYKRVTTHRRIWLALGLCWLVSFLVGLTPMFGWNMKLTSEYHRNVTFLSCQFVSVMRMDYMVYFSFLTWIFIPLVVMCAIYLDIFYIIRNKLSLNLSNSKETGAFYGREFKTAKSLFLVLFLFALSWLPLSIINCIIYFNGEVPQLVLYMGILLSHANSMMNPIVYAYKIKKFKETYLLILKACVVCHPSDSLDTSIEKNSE

[3] = molecular target: T2, adenosine A3 receptor (A3R); experiment: inhibition of forskolin-stimulated cAMP accumulation in HEK-293 cells expressing A3R (partial agonist, Emax […]); details: read-out: IC50 (the source's name)

OC[C@H]1O[C@@H](n2cnc3c(NC4CCCC4)ncnc32)[C@H](O)[C@@H]1O [CPA]
cAMP accumulation assay in HEK-293 cells expressing A1R (reference agonist) [1]: CPA (N^6-cyclopentyladenosine, selective A1R agonist) induced the maximum A3R- and A1R-mediated inhibition of cAMP accumulation

CNC(=O)[C@@]12C[C@@H]1[C@@H](n1cnc3c(NCc4cccc(Cl)c4)nc(C#Cc4ccc(F)c(F)c4)nc31)[C@H](O)[C@@H]2O [MRS5698, (1S,2R,3S,4R,5S)-4-(6-((3-chlorobenzyl)amino)-2-((3,4-difluorophenyl)-ethynyl)-9H-purin-9-yl)-2,3-dihydroxy-N-methylbicyclo[3.1.0]hexane-1-carboxamide]
cAMP accumulation assay in HEK-293 cells expressing A3R (reference agonist) [2]: treatment with MRS5698 and CPA (N^6-cyclopentyladenosine, selective A1R agonist) induced the maximum A3R- and A1R-mediated inhibition of cAMP accumulation

CNC(=O)[C@H]1O[C@@H](n2cnc3c(NCc4ccc5c(c4)/N=N/c4ccccc4CC5)ncnc32)[C@H](O)[C@@H]1O [compound 4, E-MRS7787]
EC50 [3]: 0.031 µM

Source: paper PMC11726555, “Photoswitchable Diazocine Derivative for Adenosine A3 Receptor Activation in Psoriasis” (Journal of the American Chemical Society, 2024)
